Results: US8975214B2, “Emulsion adjuvant for herbicides” (Innovative Chemical Services Pty Ltd, priority 2010, dated 2015)

Tested on: Oats
Test: Glasshouse trial: adjuvant effect when applied with glyphosate to control oats
Assay type: in vivo
Details: no adjuvant, 14 days after treatment
From the text: In this example, the adjuvant effect of Compositions C and D from Example 1 was compared with a range of commercially available adjuvants when applied with glyphosate in 2 water hardnesses to control oats in a glasshouse.

O=C(O)CNCP(=O)(O)O [Glyphosate, glyphosate]
Fresh Weight % of untreated control (glyphosate 50 g a.i./ha, water hardness 50 ppm CaCO3, oats 1.5-2 leaf): 73 % of untreated control
Fresh Weight % of untreated control (glyphosate 50 g a.i./ha, water hardness 300 ppm CaCO3): 106 % of untreated control
Fresh Weight % of untreated control (glyphosate 100 g a.i./ha, water hardness 50 ppm CaCO3): 52 % of untreated control
Fresh Weight % of untreated control (glyphosate 100 g a.i./ha, water hardness 300 ppm CaCO3): 65 % of untreated control
